Experimental findings from US11738034B2, “Triphenylphosphonium-derivative compounds for eradicating cancer stem cells” (LUNELLA BIOTECH, INC., priority 2017, dated 2023) are described below.

Some results are limits rather than exact numbers.

Series [1] has as its system MCF-7 human breast cancer cells. The series can be described thus: ATP-depletion assay (CellTiter-Glo & Hoechst 33342) in MCF-7 cells. It counts as cell-based. The following applies: for effect on ATP levels in initial screen (positive hit): MCF-7, ATP depletion screen of nine TPP-derivatives; for effect on ATP levels in validation (FIGS. 2-4): MCF-7 treated for 72 h; for Hoechst staining (%) / ATP level (%): MCF-7 cell line, 50 μM treatment for 72 hours, normalized to control; for Hoechst staining (%): cell viability. The source says:
In order to identify new molecules that can be used to target mitochondria within CSCs, the inventors screened a variety of TPP-derivatives as described herein, by employing CellTiter-Glo to measure intracellular levels of ATP in adherent cancer cells (MCF-7) in 96-well plates. As 85% of cellular ATP is normally derived from mitochondrial metabolism, ATP levels are an excellent read-out to monitor mitochondrial function. In parallel, the same 96-well plates were also stained with Hoechst 33342, to measure DNA content, to gauge cell viability. Therefore, we randomly selected 9 TPP derivatives and subjected them to screening in our assay system.
With respect to the ATP-depletion assay (with CellTiter-Glo & Hoechst 33342), MCF-7 cells were treated with different TPP derivatives for 72 hours in a black 96-well plate then wells were washed with PBS and were stained with Hoechst 33342 dye at a final concentration of 10 μg/ml. Fluorescence was read by a plate reader at 355 nm (excitation), 460 nm (emission). After washing with PBS CellTiterGlo luminescent assay (Promega) was performed according to the manufacturer's protocols to determine intracellular ATP levels in the Hoechst dye stained cells. Both the fluorescent and luminescent data were normalized to control levels and were shown as percentage for comparison.
For orientation: ATP-based viability assays read luminescence as a measure of living cells.

Series [2] deals with MCF-7 cells. The experiment in a line: Mitochondrial oxygen consumption rate (OCR), Seahorse XFe96. As to conditions: MCF-7, Seahorse, FIGS. 6-8. It counts as cell-based, human. The text has this: Some embodiments of the present approach relate to identifying TPP-derivatives compounds that target mitochondria in CSCs and represent potential anti-cancer therapies. To further validate that the ATP level reduction of the TPP compounds was indeed due to the inhibition of mitochondrial function, we directly measured mitochondrial oxygen consumption rates (OCR) using the Seahorse XFe96 metabolic flux analyser.
FIG. 6 illustrates the impaired mitochondrial function of MCF-7 cells after treatment with TPP Compound 1. FIGS. 7A and 7B illustrate the impaired mitochondrial function of MCF-7 cells after treatment with either TPP Compound 2 or TPP Compound 3. […] Oxygen consumption rate (OCR) was measured with a Seahorse XF96 Extracellular Flux Analyzer. Data are represented as mean+/−SEM. […] For FIG. 6, **p<0.01; ***p<0.001; indicates significance, all relative to the control. […] For FIG. 7, **p<0.01; ***p<0.001; indicates significance, all relative to the control. […] And for FIG. 8, **p<0.01; ***p<0.001; indicates significance, all relative to the control.
For measuring the mitochondrial OCR, mitochondrial function was determined by using the XF Cell Mito Stress Test Kit (Seahorse Bioscience, MA, USA) with a Seahorse XFe96 Extracellular Flux Analyzer (Seahorse Bioscience, MA, USA). MCF-7 cells were seeded in a specialized 96-well tissue culture plate (XF96 microplate). The next day, the TPP derivatives were added and the plate was incubated for 72 hours. Before the experiment media was changed to XF base medium (including 1 mM pyruvate, 2 mM glutamine and 10 mM glucose), cells were incubated at 37° C. in a CO2-free atmosphere for one hour before measurement. After detection of basal OCR (an indicator for mitochondrial respiration) OCR responses were evaluated towards the application of oligomycin (1 μM), FCCP (600 nM), and the combination of antimycin (1 μM) and rotenone (1 μM). From these measurements various parameters of mitochondrial function were determined. To determine cell viability in the measured wells sulphorodamine (SRB) assay was performed. Oxygen consumption rate values were then normalized to the given SRB values.

Series [3] deals with MCF-7 breast CSCs. The series can be described thus: 3D Spheroid (mammosphere) assay, CSC propagation. The series is classed as cell-based, human. The following applies: MCF-7, treated for 5 days in mammosphere media; read-out: IC-50, CSC propagation (mammosphere formation). The protocol: Following validation, the inventors evaluated the effects of these TPP-derivative compounds on the propagation of CSCs, using the mammosphere assay as a read-out. […] The data presented in FIG. 9, from left to right, are TPP-derivatives in the following order: 2,4-dichlorobenzyl-TPP (black); 1-naphthylmethyl-TPP (inclined lines); 3-methylbenzyl-TPP (dotted lines); 2-chlorobenzyl-TPP (white); 2-butene-1,4-bis-TPP (horizontal lines). Cells were treated for 5 days in mammosphere media. Data are represented as mean+/−SEM.
For the 3D Spheroid (mammosphere) assay, a single cell suspension of MCF-7 cells was prepared using enzymatic (lx Trypsin-EDTA, Sigma Aldrich, #T3924) and manual disaggregation (25 gauge needle) to create a single cell suspension. […] Different TPP derivatives were previously diluted in the mammosphere media before addition of cells. […] After 5 days of culture, spheres >50 μm were counted using an eyepiece graticule and mammosphere numbers were normalized to control treatments (cells treated with vehicle only).

Series [4] has as its system normal fibroblasts (hTERT-BJ1). The series can be described thus: Cell viability (Hoechst) and intracellular ATP levels in normal fibroblasts. As to conditions: hTERT-BJ1, 1 μM, 72 h. The series is classed as cell-based, human. The protocol: Cell viability and intracellular ATP levels were determined in the same treated samples. Hoechst staining (%) of hTERT-BJ1 human fibroblasts (black); ATP level (%) of hTERT-BJ1 human fibroblasts (dotted); Hoechst staining (%) of MCF-7 cells (inclined lines); ATP level (%) of MCF-7 cells (white). TPP treatments at 1 μM, 72 h. Data are represented as mean+/−SEM. *p<0.05; **p<0.01; indicates significance, all relative to the control.
With respect to cell culture and reagents, the human breast adenocarcinoma cell line (MCF-7) was from the American Type Culture Collection (ATCC). hTERT-BJ1 cells were from Clontech, Inc. MCF-7 and hTERT-BJ1 cells were grown in DMEM supplemented with 10% fetal bovine serum, GlutaMAX and 1% penicillin-streptomycin and incubated at 37 C in a humidified 5% CO2 incubator. The medium was changed 2-3 times/week. […]
With respect to the ATP-depletion assay (with CellTiter-Glo & Hoechst 33342), MCF-7 cells were treated with different TPP derivatives for 72 hours in a black 96-well plate then wells were washed with PBS and were stained with Hoechst 33342 dye at a final concentration of 10 μg/ml. Fluorescence was read by a plate reader at 355 nm (excitation), 460 nm (emission). […]

Turning to `c1ccc([P+](Cc2cccc3ccccc23)(c2ccccc2)c2ccccc2)cc1` [1-naphthylmethyl-TPP], in series [1], the “effect on ATP levels in initial screen (positive hit)” value (from here on “effect on ATP levels … (positive hit)”) was “significantly reduced ATP levels” and the “effect on ATP levels in validation (FIGS. 2-4)” value (“effect … (FIGS. 2-4)” below) was “progressively deplete cellular ATP levels”. The “effect on mitochondrial oxygen consumption” value in series [2] is listed as “effectively inhibit mitochondrial oxygen consumption”. The IC50 in series [3] is above 5 µM.

Regarding `Clc1ccc(C[P+](c2ccccc2)(c2ccccc2)c2ccccc2)c(Cl)c1` [2,4-dichlorobenzyl-TPP], in series [1], the “effect on ATP levels … (positive hit)” value is “significantly reduced ATP levels” and the “effect … (FIGS. 2-4)” value is on record as “progressively deplete cellular ATP levels”. Further, in series [2], the “effect on mitochondrial oxygen consumption” value is reported as “effectively inhibit mitochondrial oxygen consumption”.

On to `C(=CC[P+](c1ccccc1)(c1ccccc1)c1ccccc1)C[P+](c1ccccc1)(c1ccccc1)c1ccccc1` [2-butene-1,4-bis-TPP], for which, in series [1] (MCF-7, 1 μM, 72 h), the “decrease of ATP levels in MCF-7 cancer cells” value is on record as around 85% and the “reduction of cell viability in MCF-7 cancer cells” value is reported as around 65%. For the same molecule, in series [1], the “effect on ATP levels … (positive hit)” value is reported as “significantly reduced ATP levels” and the “effect … (FIGS. 2-4)” value is listed as “depletes ATP levels, relative to cell number”. Besides, in series [1] (MCF-7 versus hTERT-BJ1, 1 μM), the “fold more effective at reducing ATP levels in cancer cells, relative to normal fibroblasts” value is reported as 4.7 fold and the “fold more effective at reducing cell viability in cancer cells (versus fibroblasts)” value came to 2.8 fold. Moreover, in series [4], the “effect on cell viability in human fibroblasts” value is recorded as “no effect on cell viability” and the “reduction of ATP levels in human fibroblasts” value is 25%. Besides, the “effect on mitochondrial oxygen consumption” value in series [2] is reported as “effectively inhibits mitochondrial oxygen consumption”. Besides, in series [3], the IC50 is below 0.5 µM.

`Clc1ccccc1C[P+](c1ccccc1)(c1ccccc1)c1ccccc1` [2-chlorobenzyl-TPP]: in series [1], the “effect on ATP levels … (positive hit)” value is reported as “significantly reduced ATP levels” and the “effect … (FIGS. 2-4)” value is on record as “progressively deplete cellular ATP levels”. Also, the “effect on mitochondrial oxygen consumption” value in series [2] is reported as “effectively inhibit mitochondrial oxygen consumption”.

`Cc1cccc(C[P+](c2ccccc2)(c2ccccc2)c2ccccc2)c1` [3-methylbenzyl-TPP]: in series [1], the “effect on ATP levels … (positive hit)” value is reported as “significantly reduced ATP levels” and the “effect … (FIGS. 2-4)” value is given as “progressively deplete cellular ATP levels”. In addition, the “effect on mitochondrial oxygen consumption” value in series [2] is recorded as “effectively inhibit mitochondrial oxygen consumption”.

For `N#Cc1ccc(C[P+](c2ccccc2)(c2ccccc2)c2ccccc2)cc1` [4-cyanobenzyl-TPP], in series [1], the “Hoechst staining (%)” value worked out at 72.7% and the “ATP level (%)” value is recorded as 68.2%.

Regarding `N#CC[P+](c1ccccc1)(c1ccccc1)c1ccccc1` [cyanomethyl-TPP], in series [1], the “Hoechst staining (%)” value came to 97.2% and the “ATP level (%)” value was determined as 95.1%.

For `CC1(C)CC(NC(=O)C[P+](c2ccccc2)(c2ccccc2)c2ccccc2)CC(C)(C)N1[O]` [mito-TEMPO, (2-(2,2,6,6-Tetramethylpiperidin-1-oxyl-4-ylamino)-2-oxoethyl)triphenylphosphonium chloride, reference compound], in series [1], the “Hoechst staining (%)” value was 100.0% and the “ATP level (%)” value worked out at 100.0%.

Consider `c1ccc([P+](Cc2ccc(C[P+](c3ccccc3)(c3ccccc3)c3ccccc3)cc2)(c2ccccc2)c2ccccc2)cc1` [p-xylylenebis-TPP, p-xylylene-bis-TPP], for which, in series [1], the “Hoechst staining (%)” value came to 69.1% and the “ATP level (%)” value turned out to be 43.9%.
